Columns and labels:
human GPRC6A isoform 3 = target: T1, human GPRC6A isoform 3 (Homo sapiens, UniProt Q5T6X5); assay: cAMP accumulation in HEK-293 cells transfected with human GPRC6A isoform 3; format: cell-based; details: HEK-293 transfected with GPRC6A isoform 3, 40 min
T1 construct: expressed in transfected cells; host or cells: HEK-293
T1 sequence (Q5T6X5 19-855 isoform Q5T6X5-3 limits assumed): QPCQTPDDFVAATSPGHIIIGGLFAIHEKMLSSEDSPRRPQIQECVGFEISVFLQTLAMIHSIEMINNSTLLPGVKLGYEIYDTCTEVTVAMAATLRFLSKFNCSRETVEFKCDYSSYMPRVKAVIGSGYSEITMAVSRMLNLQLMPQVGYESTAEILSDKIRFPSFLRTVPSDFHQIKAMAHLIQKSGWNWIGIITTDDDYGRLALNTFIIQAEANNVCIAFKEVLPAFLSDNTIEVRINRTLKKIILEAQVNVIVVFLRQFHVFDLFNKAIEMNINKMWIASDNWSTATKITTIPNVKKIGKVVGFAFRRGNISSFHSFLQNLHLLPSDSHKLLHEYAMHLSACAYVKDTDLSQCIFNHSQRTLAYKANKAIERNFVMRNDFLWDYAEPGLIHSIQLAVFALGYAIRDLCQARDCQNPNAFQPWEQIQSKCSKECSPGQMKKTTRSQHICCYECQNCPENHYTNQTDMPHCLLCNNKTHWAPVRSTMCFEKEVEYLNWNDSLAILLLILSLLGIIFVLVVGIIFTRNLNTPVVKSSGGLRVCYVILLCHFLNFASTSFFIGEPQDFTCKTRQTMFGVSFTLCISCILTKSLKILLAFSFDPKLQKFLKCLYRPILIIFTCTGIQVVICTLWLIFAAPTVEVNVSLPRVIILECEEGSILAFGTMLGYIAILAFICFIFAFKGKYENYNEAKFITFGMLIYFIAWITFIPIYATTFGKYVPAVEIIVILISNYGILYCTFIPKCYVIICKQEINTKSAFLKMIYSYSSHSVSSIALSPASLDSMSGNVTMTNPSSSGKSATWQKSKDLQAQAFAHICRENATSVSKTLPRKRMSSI
Description: (§1) HEK‐293 transfected with human GPRC6A isoform cDNA plasmids cells (10^5 cells/well)[30] were cultured in 24‐well plates in DMEM supplemented with 10% fetal bovine serum and 1% penicillin/streptomycin (100 U/mL of penicillin and 100 μg/mL of streptomycin) for 48 h followed by 4 h incubation in DMEM/F12 containing 0.1% BSA and 0.5 mM IBMX to achieve quiescence and preventing cAMP degradation. Quiescent cells were treated with vehicle control, various ligands at concentration as indicated for 40 min at 37°C. Then, the reaction was stopped, and the cells lysed with 0.5 mL 0.1 N HCl. cAMP levels were measured by using Cyclic AMP EIA kit (Cayman Chemical; Ann Arbor, MA, USA) following the manufacture's protocol.

human GPRC6A isoform 1 [1] = target: T2, human GPRC6A isoform 1 (Homo sapiens, UniProt Q5T6X5); assay: ERK activation (phospho-ERK/total ERK ELISA) in HEK-293 cells transfected with human GPRC6A isoform 1 (wild-type); format: cell-based; details: fragments at 20 nM; HEK-293 with pcDNA3-hGPRC6A; 15 min; Figure 3B / S5B
T2 construct: expressed in transfected cells; host or cells: HEK-293, pcDNA3-hGPRC6A
T2 sequence (Q5T6X5 19-926): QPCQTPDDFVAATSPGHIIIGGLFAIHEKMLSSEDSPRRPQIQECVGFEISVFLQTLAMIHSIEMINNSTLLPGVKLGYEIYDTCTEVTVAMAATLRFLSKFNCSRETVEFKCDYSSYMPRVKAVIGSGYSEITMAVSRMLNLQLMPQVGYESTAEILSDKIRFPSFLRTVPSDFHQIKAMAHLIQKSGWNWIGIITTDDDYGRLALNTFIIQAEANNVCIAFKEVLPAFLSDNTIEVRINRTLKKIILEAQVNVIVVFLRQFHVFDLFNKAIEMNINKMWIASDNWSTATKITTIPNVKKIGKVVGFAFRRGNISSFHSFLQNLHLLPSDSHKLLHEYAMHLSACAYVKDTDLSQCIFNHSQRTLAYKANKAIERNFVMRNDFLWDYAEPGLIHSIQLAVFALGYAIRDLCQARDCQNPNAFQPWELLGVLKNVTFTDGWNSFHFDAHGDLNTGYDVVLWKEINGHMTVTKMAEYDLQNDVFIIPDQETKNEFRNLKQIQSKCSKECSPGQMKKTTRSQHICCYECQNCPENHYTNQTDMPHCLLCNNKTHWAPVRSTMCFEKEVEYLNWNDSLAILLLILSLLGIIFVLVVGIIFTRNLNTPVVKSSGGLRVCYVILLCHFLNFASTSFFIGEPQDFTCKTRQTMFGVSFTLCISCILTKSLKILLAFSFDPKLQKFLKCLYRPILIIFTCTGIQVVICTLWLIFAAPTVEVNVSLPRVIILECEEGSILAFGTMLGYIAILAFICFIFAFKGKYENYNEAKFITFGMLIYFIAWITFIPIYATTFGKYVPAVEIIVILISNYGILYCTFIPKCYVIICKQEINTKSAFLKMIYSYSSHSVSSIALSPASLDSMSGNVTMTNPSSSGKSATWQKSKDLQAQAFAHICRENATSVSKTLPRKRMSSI
Description: All culture reagents were from Invitrogen (Waltham, MA, USA). Human embryonic kidney HEK‐293 cells were obtained from American Type Culture Collection and cultured in DMEM medium supplemented with 10% fetal bovine serum and 1% Penicillin/Streptomycin (P/S). Briefly, HEK‐293 cells transfected with/without human GPRC6A isoforms cDNA plasmids were starved by overnight incubation in serum‐free DMEM/F12 containing 0.1% bovine serum albumin (BSA) and stimulated with various ligands at different doses. […]

human GPRC6A isoform 1 [2] = target: T2, human GPRC6A isoform 1; assay: cAMP accumulation in HEK-293 cells transfected with human GPRC6A isoform 1 (wild-type, full length); format: cell-based; details: fragments at 20 nM; HEK-293 with pcDNA3-hGPRC6A; 40 min; Figure 3C / S5C
Description: as §1

human GPRC6A isoform 2 = target: T3, human GPRC6A isoform 2 (Homo sapiens, UniProt Q5T6X5); assay: cAMP accumulation in HEK-293 cells transfected with human GPRC6A isoform 2; format: cell-based; details: HEK-293 transfected with GPRC6A isoform 2; presence of 1 mM calcium; 40 min; Figure 2A
T3 construct: expressed in transfected cells; host or cells: HEK-293
T3 sequence (Q5T6X5 19-751 isoform Q5T6X5-2 limits assumed): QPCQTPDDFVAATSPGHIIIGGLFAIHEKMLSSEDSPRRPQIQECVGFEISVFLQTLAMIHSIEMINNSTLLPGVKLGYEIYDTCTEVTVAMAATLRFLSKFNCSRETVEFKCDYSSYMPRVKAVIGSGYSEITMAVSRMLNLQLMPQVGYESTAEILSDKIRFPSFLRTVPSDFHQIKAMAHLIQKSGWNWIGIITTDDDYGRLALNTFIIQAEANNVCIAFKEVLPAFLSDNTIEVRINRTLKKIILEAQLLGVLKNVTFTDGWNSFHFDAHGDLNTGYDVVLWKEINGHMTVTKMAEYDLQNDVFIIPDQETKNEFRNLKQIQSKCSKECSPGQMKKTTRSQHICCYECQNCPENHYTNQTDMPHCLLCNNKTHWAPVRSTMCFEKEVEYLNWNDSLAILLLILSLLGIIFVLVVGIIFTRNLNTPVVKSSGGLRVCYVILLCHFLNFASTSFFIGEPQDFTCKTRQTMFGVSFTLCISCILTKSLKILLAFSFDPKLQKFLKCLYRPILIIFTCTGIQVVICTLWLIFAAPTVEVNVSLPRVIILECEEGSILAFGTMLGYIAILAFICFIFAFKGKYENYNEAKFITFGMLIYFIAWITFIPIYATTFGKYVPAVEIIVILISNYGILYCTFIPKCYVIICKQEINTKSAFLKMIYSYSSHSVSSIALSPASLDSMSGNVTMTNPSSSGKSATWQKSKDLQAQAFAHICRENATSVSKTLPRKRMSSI
Description: as §1

GPRC6A = test system: GPRC6A; parameters: method as in PMID 32147363; details: cited from earlier work
mouse model = test system: mouse model; parameters: method as in PMID 32147363; details: oral or intraperitoneal administration to a mouse model; cited from earlier work

Compound: C[C@]12CC[C@H]3[C@@H](CCC4=CC(=O)CC[C@@]43C)[C@@H]1CC[C@@H]2O [testosterone]
- Testosterone (T) activation, cAMP accumulation (human GPRC6A isoform 3; Figure S4): loss responsive

Compound: APVPYPDPLEPR [Ocn 8–19, synthesized human Ocn fragment, 12 aa]
- ERK phosphorylation by synthesized human Ocn fragments (human GPRC6A isoform 1 [1]): activated GPRC6A
- cAMP accumulation by synthesized human Ocn fragments (human GPRC6A isoform 1 [2]): activated GPRC6A

Compound: N=C(N)NCCC[C@H](N)C(=O)O [L‐Arg, L‐Arginine]
- L-Arg stimulation of cAMP accumulation (human GPRC6A isoform 3; presence of 1 mM calcium, Figure 2A): retained responsiveness
- L-Arg stimulation of cAMP accumulation (human GPRC6A isoform 2): loss of L‐Arg stimulation of cAMP

Compound: WLGAPVPYPDPLEPR
- Activation of GPRC6A in vitro (GPRC6A): activate GPRC6A in vitro
- Effect on fatty liver disease and insulin resistance (mouse model): improve fatty liver disease and insulin resistance

— publication PMC11467737, “Osteocalcin binds to a GPRC6A Venus fly trap allosteric site to positively modulate GPRC6A signaling” (FASEB BioAdvances, 2024)
